Source: patent US20130209359A1, “Small Peptides Specifically Bind to Colorectal Cancers” (The Johns Hopkins University, priority 2007, published 2013)

Assays:
Type in all cases: cell-based
[1] = system: HeLa S3 cervical cancer cells; experiment: Binding of 32P-labeled decapeptides to cell lines; details: two-hour incubation, washes; average
Protocol: (§1) Assay of the binding of ^32P-labeled decapeptides to cell lines: Cell lines were grown in complete medium containing 10% bovine fetal serum (heat inactivated). In each well of a 96-well plate, 10,000 cells from various cell lines were grown overnight in complete medium. Ten μl of the labeled-peptide in 1×PBS and 90 μl of complete medium were added to each well and incubated at 37° C. at various times of up to two hours. The peptide-medium was removed and one μl added to 100 ul gel loading buffer and counted by scintillation counting for the probe control or run on a polyacrylamide-SDS gel (Biorad). The adherent cells were briefly and gently washed with complete medium three times and some wells were assayed immediately by adding 100 μl of gel loading buffer to each well and run on a gel or counted in a scintillation counter. Other wells had 100 μl complete medium added and incubated for a further time period. Samples were either counted in a liquid scintillation counter or run on polyacrylamide-SDS gels, exposed to x-ray film, and the film developed.

[2] = system: human embryonic kidney cell line 293H; experiment: Binding of 32P-labeled decapeptides to cell lines; details: two-hour incubation, washes
Protocol: as §1

[3] = system: HCT116 colon adenocarcinoma cells; experiment: Binding of 32P-labeled decapeptides to cell lines; details: two-hour incubation, washes; average
Protocol: as §1

[4] = system: HT1080 fibrosarcoma cells; experiment: Binding of 32P-labeled decapeptides to cell lines; details: two-hour incubation, washes
Protocol: as §1

[5] = system: eleven nonbinding cell lines; experiment: Binding of 32P-labeled decapeptides to cell lines
Protocol: as §1

[6] = system: Caco-2 colon adenocarcinoma cell line; experiment: Binding of 32P-labeled decapeptides to cell lines
Protocol: as §1

[7] = system: colon adenocarcinoma cell lines (Caco-2, HCT15, HCT116, LoVo, HT29); experiment: Binding and overnight release/retention of 32P-labeled decapeptide; details: two-hour incubation
Protocol: as §1

[8] = two hours incubation, three wash steps, overnight incubation in medium

Q: With “GSRRASVASA (synthetic or recombinant sequence) [MA5]” as the sequence, how does the “32P counts per minute (cpm) remaining bound” value [1] read?
A: 534 cpm per 10,000

Q: What about the “32P counts per minute (cpm) remaining bound” value [2] of the same sequence?
A: 429 cpm per 10,000 cells

Q: What about the “32P counts per minute (cpm) remaining bound” value [3] of the same sequence?
A: 131,998 cpm per 10,000 cells

Q: And the “32P counts per minute (cpm) remaining bound” value [4]?
A: 367 cpm

Q: What about the “average cpm of the eleven nonbinding cell lines” value ([5]; two-hour incubation, 10,000 cells, washed three times) of the same sequence?
A: 365 cpm

Q: What about the “mean cpm values of blank wells and nonbinding cell lines” value ([5]; two-hour incubation, washes) of the same sequence?
A: less than 550 cpm

Q: What about the “retained counts per hour per cell” value ([6]; after overnight incubation) of the same sequence?
A: 348 counts per hour, per cell

Q: And the “retained counts extrapolated per cell per day” value ([6]; after overnight incubation, extrapolated)?
A: over 8,300 counts per cell per day

Q: And the “percentage of the total radioactive counts present in the incubation well retained by cells” value ([6]; after two-hour incubation)?
A: approximately 18%

Q: And the “time to plateau of 32P-peptide release into medium” value ([6]; after washing)?
A: ≤ 24 h

Q: And the “retained counts per cell extrapolated over a potential 2-week exposure period” value ([6]; extrapolated over 2 weeks)?
A: over 87,000 counts per cell

Q: What about the “time by which the majority of total released counts are released” value ([6]; release after washing over a 48-hour time period) of the same sequence?
A: released by nine hours of incubation

Q: And the “cpm retained by cells after overnight incubation” value ([6]; triplicate wells containing 10,000 cells each, three washes, overnight at 37 C)?
A: 58,305 cpm

Q: What about the “relative binding among decapeptides (in words)” value ([6]; two hour incubation) of the same sequence?
A: most efficient binding decapeptide

Q: What about the “radioactive dose transferred per cell” value ([6]; two hour incubation, wash, immediate determination of retained radioactivity) of the same sequence?
A: over 29 counts per minute per cell

Q: What about the “originally retained 32P isotope released” value [6, 8] of the same sequence?
A: 88%

Q: And the “originally retained 32P isotope retained by cells” value [6, 8]?
A: 12%

Q: What about the “retention difference between decapeptide variants” value ([6]; two hours' incubation, variant MA2 vs. variant MA5) of the same sequence?
A: 70 fold

Q: And the “32P counts per minute (cpm) remaining bound” value ([6]; two-hour incubation, washes with complete medium, average of triplicate wells)?
A: 298,639 cpm per 10,000 cells

Q: And the “retention of radioactivity (in words)” value ([7]; five of sixteen cell lines)?
A: very strong retention of radioactivity

Q: What about the “initially retained radioactive counts retained by cells” value ([7]; washes, overnight incubation) of the same sequence?
A: approximately 12%
